Assay results taken from paper PMC8397297 (ACS Chemical Neuroscience, 2021).

What was measured:
mGAT3 = molecular target: T1, mGAT3 (Mus musculus, UniProt P31649); test: [3H]GABA uptake assay in HEK-293 cells stably expressing mGAT3; assay type: cell-based; details: for IC50: [3H]GABA uptake, read-out: pIC50 ± SEM mGAT3 (converted)
T1 construct: expressed in transfected cells; host or cells: HEK-293
T1 sequence (P31649 1-602): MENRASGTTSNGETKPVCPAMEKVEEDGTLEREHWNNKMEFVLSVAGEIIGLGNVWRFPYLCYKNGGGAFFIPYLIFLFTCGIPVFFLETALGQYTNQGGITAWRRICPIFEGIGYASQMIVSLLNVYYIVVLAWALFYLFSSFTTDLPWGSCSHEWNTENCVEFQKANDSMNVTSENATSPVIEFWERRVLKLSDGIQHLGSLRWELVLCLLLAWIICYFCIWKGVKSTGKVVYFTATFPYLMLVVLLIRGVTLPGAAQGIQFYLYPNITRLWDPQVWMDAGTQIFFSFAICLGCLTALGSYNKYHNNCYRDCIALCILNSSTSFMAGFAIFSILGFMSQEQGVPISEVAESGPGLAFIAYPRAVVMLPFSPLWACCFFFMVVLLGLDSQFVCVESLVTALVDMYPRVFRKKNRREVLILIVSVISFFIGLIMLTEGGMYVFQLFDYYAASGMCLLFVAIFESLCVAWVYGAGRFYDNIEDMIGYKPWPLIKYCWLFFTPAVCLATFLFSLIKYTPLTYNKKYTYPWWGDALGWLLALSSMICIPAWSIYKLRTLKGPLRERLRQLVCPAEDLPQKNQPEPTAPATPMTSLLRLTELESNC

mGAT1 [1] = molecular target: T2, mGAT1 (Mus musculus, UniProt P31648); test: [3H]GABA uptake assay in HEK-293 cells stably expressing mGAT1; assay type: cell-based; details: for remaining [3H]GABA uptake mGAT1: in the presence of 100 μM inhibitor; for IC50: [3H]GABA uptake, read-out: pIC50 ± SEM mGAT1 (converted)
T2 construct: expressed in transfected cells; host or cells: HEK-293

mGAT2 = molecular target: T3, mGAT2 (Mus musculus, UniProt P31651); test: [3H]GABA uptake assay in HEK-293 cells stably expressing mGAT2; assay type: cell-based; details: for IC50: [3H]GABA uptake, read-out: pIC50 ± SEM mGAT2 (converted); for remaining [3H]GABA uptake mGAT2: in the presence of 100 μM inhibitor
T3 construct: expressed in transfected cells; host or cells: HEK-293
T3 sequence (P31651 1-614): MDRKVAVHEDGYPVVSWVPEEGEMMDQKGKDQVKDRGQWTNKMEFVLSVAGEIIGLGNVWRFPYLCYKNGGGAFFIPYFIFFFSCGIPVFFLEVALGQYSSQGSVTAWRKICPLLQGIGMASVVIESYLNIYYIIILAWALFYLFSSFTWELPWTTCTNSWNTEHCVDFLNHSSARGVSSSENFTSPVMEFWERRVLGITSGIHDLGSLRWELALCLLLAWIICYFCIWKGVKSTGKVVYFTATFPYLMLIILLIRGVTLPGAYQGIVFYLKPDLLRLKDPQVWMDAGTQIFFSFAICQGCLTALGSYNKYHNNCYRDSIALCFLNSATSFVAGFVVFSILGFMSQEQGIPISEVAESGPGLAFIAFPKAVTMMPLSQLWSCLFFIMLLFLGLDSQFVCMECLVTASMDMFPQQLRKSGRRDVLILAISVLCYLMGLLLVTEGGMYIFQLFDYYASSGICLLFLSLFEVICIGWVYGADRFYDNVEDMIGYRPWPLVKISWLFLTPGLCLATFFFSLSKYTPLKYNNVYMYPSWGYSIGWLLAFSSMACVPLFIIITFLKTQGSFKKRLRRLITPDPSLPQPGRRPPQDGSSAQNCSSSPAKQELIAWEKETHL

mGAT1 [2] = molecular target: T2, mGAT1; test: competitive MS binding assay with NO711 as unlabeled marker (LC-ESI-MS/MS); details: for remaining NO711 binding mGAT1: in the presence of 100 μM inhibitor
Method: Specific binding affinity toward mGAT1 was determined via a competitive mass spectrometry (MS) binding assay quantified by liquid chromatography–electrospray ionization tandem mass spectrometry (LC–ESI-MS/MS) with NO711 as an unlabeled marker.[50]
MS binding assays for mGAT1 were performed as described earlier.[50] Inhibition of mGAT1 binding by the synthesized compounds was determined in MS binding assays at a screening concentration of 100 μM and analyzed by LC–ESI-MS/MS.

mGAT4 = molecular target: T4, mGAT4 (Mus musculus, UniProt P31650); test: [3H]GABA uptake assay in HEK-293 cells stably expressing mGAT4; assay type: cell-based; details: for remaining [3H]GABA uptake mGAT4: in the presence of 100 μM inhibitor; for IC50: [3H]GABA uptake, read-out: pIC50 ± SEM mGAT4 (converted)
T4 construct: expressed in transfected cells; host or cells: HEK-293
T4 sequence (P31650 1-627): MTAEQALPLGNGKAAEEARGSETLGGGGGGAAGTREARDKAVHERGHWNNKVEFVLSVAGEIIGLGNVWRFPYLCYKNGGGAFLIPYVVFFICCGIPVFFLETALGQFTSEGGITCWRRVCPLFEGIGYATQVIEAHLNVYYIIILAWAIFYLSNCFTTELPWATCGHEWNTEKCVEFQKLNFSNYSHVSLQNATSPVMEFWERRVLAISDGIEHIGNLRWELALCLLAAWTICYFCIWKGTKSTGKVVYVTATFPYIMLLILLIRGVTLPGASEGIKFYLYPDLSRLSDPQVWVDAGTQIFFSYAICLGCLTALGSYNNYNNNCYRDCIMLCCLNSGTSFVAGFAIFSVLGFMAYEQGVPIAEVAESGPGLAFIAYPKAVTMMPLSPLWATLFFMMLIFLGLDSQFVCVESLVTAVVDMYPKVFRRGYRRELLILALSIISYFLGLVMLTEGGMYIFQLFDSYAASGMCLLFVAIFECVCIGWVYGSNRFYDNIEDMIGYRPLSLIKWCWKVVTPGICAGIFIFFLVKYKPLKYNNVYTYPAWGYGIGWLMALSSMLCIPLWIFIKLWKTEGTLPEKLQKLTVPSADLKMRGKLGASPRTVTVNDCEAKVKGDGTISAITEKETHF

Row | Structure (SMILES) | IC50 (mGAT3) [µM] | remaining [3H]GABA uptake mGAT1 (mGAT1 [1]) | IC50 (mGAT2) [µM] | remaining NO711 binding mGAT1 (mGAT1 [2]) | remaining [3H]GABA uptake mGAT4 (mGAT4) | IC50 (mGAT1 [1]) [µM] | IC50 (mGAT4) [µM] | remaining [3H]GABA uptake mGAT2 (mGAT2) | remaining [3H]GABA uptake mGAT3 (mGAT3; in the presence of 100 μM inhibitor) | Ki (mGAT1 [2]; MS binding assay, read-out: pKi ± SEM mGAT1 (converted)) [µM]
1 | CC(O)CC(C(=O)NCc1ccccc1)N1CCC(=C2c3ccccc3-c3ccccc32)CC1 (stereo not drawn) [2RS,4RS-41a, N-Benzyl-2-[4-(9H-fluoren-9-ylidene)piperidin-1-yl]-4-hydroxypentanamide] | 64.6 | 100 μM: 49% | 74.1 | 100 μM: 92% | 52% | – | – | – | – | –
2 | CC(O)CC(C(=O)NCc1ccccc1)N1CCC(=C2c3ccccc3CCc3ccccc32)CC1 (stereo not drawn) [2RS,4RS-43a, N-Benzyl-2-(4-(10,11-dihydro-5H-dibenzo[a,d][7]annulen-5-ylidene)piperidin-1-yl)-4-hydroxypentanamide] | 21.4 | – | 56.2 | 100 μM: 77% | – | 17 | 26.3 | – | – | –
3 | CC(O)CC(C(=O)NCc1ccc(F)cc1)N1CCC(=C2c3ccccc3CCc3ccccc32)CC1 (stereo not drawn) [2RS,4RS-43b, 2-(4-(10,11-Dihydro-5H-dibenzo[a,d][7]annulen-5-ylidene)piperidin-1-yl)-N-(4-fluorobenzyl)-4-hydroxypentanamide] | 38 | – | – | 100 μM: 86% | – | 70.8 | 47.9 | 100 μM: 59% | – | –
4 | CC(O)CC(C(=O)NCc1ccccc1)N(C)CCON=C(c1ccccc1)c1ccccc1 (stereo not drawn) [2RS,4RS-45, N-Benzyl-2-[(2-{[(diphenylmethylidene)amino]oxy}ethyl)(methyl)amino]-4-hydroxypentanamide] | 20 | – | 45.7 | 100 μM: 100% | – | 43.7 ± 0.801 | 28.2 | – | – | –
5 | Cc1ccsc1C(=C1CCN(C(CC(C)O)C(=O)NCc2ccccc2Cl)CC1)c1sccc1C (stereo not drawn) [2RS,4SR-37b, 2-{4-[Bis(3-methylthiophen-2-yl)methylidene]piperidin-1-yl}-N-[(2-chlorophenyl)methyl]-4-hydroxypentanamide] | 72.4 | 100 μM: 50% | – | 100 μM: 108% | 100 μM: 56% | – | – | 100 μM: 69% | – | –
6 | CC(O)CC(C(=O)NCc1ccccc1)N1CCC(=C2c3ccccc3-c3ccccc32)CC1 (stereo not drawn) [2RS,4SR-41a, N-Benzyl-2-[4-(9H-fluoren-9-ylidene)piperidin-1-yl]-4-hydroxypentanamide] | 55 | – | 89.1 | 100 μM: 89% | – | 85.1 | 72.4 | – | – | –
7 | CC(O)CC(C(=O)NCc1ccccc1)N1CCC(=C2c3ccccc3CCc3ccccc32)CC1 (stereo not drawn) [2RS,4SR-43a, N-Benzyl-2-(4-(10,11-dihydro-5H-dibenzo[a,d][7]annulen-5-ylidene)piperidin-1-yl)-4-hydroxypentanamide] | 28.2 | – | 58.9 | 100 μM: 73% | – | 19.5 | 15.8 | – | – | –
8 | CC(O)CC(C(=O)NCc1ccc(F)cc1)N1CCC(=C2c3ccccc3CCc3ccccc32)CC1 (stereo not drawn) [2RS,4SR-43b, 2-(4-(10,11-Dihydro-5H-dibenzo[a,d][7]annulen-5-ylidene)piperidin-1-yl)-N-(4-fluorobenzyl)-4-hydroxypentanamide] | – | 100 μM: 54% | – | 100 μM: 102% | 100 μM: 62% | – | – | 100 μM: 80% | 100 μM: 87% | –
9 | CC(O)CC(C(=O)NCc1ccccc1)N(C)CCON=C(c1ccccc1)c1ccccc1 (stereo not drawn) [2RS,4SR-45, N-Benzyl-2-[(2-{[(diphenylmethylidene)amino]oxy}ethyl)(methyl)amino]-4-hydroxypentanamide] | 18.2 | – | 31.6 | 100 μM: 86% | – | 57.5 | 39.8 | – | – | –
10 | CN(CCON=C(c1ccccc1)c1ccccc1)C(CCO)C(=O)NCc1ccccc1 (stereo not drawn) [Compound 47a, N-Benzyl-2-[(2-{[(diphenylmethylidene)amino]oxy}ethyl)(methyl)amino]-4-hydroxybutanamide] | 18.2 | – | 36.3 | 100 μM: 87% | – | 16.6 | 14.8 | – | – | –
11 | CN(CCON=C(c1ccccc1)c1ccccc1)C(CCO)C(=O)NCc1ccccc1Cl (stereo not drawn) [Compound 47b, N-[(2-Chlorophenyl)methyl]-2-[(2-{[(diphenylmethylidene)amino]oxy}ethyl)(methyl)amino]-4-hydroxybutanamide] | 9.12 | – | 13.8 | 100 μM: 86% | – | 31.6 | 18.6 | – | – | –
12 | CN(CCON=C(c1ccccc1)c1ccccc1)C(CCO)C(=O)NCc1ccc(Cl)c(Cl)c1 (stereo not drawn) [Compound 47c, N-[(3,4-Dichlorophenyl)methyl]-2-[(2-{[(diphenylmethylidene)amino]oxy}ethyl)(methyl)amino]-4-hydroxybutanamide] | 11 | – | 10.2 | 100 μM: 82% | – | 21.9 | 7.08 | – | – | –
13 | CN(CCON=C(c1ccccc1)c1ccccc1)C(CCN)C(=O)NCc1ccc(Cl)c(Cl)c1 (stereo not drawn) [Compound 50b, 4-Amino-N-[(3,4-dichlorophenyl)methyl]-2-[(2-{[(diphenylmethylidene)amino]oxy}ethyl)(methyl)amino]butanamide] | 4.79 | – | 4.9 | – | – | 12.3 | 4.9 | – | – | 33.1
14 | CC(=O)NCCC(C(=O)NCc1ccccc1Cl)N(C)CCON=C(c1ccccc1)c1ccccc1 (stereo not drawn) [Compound 51a, N-[(2-Chlorophenyl)methyl]-2-[(2-{[(diphenylmethylidene)amino]oxy}ethyl)(methyl)amino]-4-acetamidobutanamide] | 9.33 | – | 13.2 | 100 μM: 74% | – | 18.2 | 12.6 | – | – | –
15 | CC(=O)NCCC(C(=O)NCc1ccc(Cl)c(Cl)c1)N(C)CCON=C(c1ccccc1)c1ccccc1 (stereo not drawn) [Compound 51b, N-[(3,4-Dichlorophenyl)methyl]-2-[(2-{[(diphenylmethylidene)amino]oxy}ethyl)(methyl)amino]-4-acetamidobutanamide] | 6.76 | – | 12 | 100 μM: 72% | – | 11.7 | 11.2 | – | – | –
